Measured values from patent US5439888A, “Antithrombotic agents” (Eli Lilly and Company, priority 1994, dated 1995).

Legend:
[1] = target: Bovine Thrombin; assay: Inhibition of thrombin amidase activity (chromogenic substrate), Kass; format: biochemical; conditions: equilibrium association constant, mean over a range of concentrations; substrate N-benzoyl-Phe-Val-Arg-p-nitroanilide
Protocol: (§1) The assay is carried out by mixing 50 μL buffer (0.03M Tris, 0.15M NaCl ,pH 7.4) with 25 μL of bovine thrombin or human thrombin solution (0.21 mg/mL of thrombostat bovine thrombin, Parke-Davis, or purified human thrombin, Enzyme Research Laboratories, South Bend, Ind., at about 8 NIH units/mL, in the same buffer) and 25 μL of test compound in a solvent (in 50% aqueous methanol, v:v). The 150 μL of an aqueous solution of the chromogenic substrate (at 0.25 mg/mL) are added and the rates of hydrolysis of the substrate are measured by monitoring the reactions at 405 nm for the release of p-nitroaniline. Standard curves are constructed by plotting free thrombin concentration against hydrolysis rate. The hydrolysis rates observed with test compounds are then converted to "free thrombin" values in the respective assays by use of the standard curves. The bound thrombin (bound to test compound) is calculated by subtracting the amount of free thrombin observed in each assay from the known initial amount of thrombin used in the assay. The amount of free inhibitor in each assay is calculated by subtracting the number of moles of bound thrombin from the number of moles of added inhibitor (test compound). […]
Kass is calculated for a range of concentrations of test compounds and the mean value is reported in units of liter per mole.

[2] = target: Trypsin; assay: Serine protease selectivity assay (chromogenic substrate), Kass, trypsin; format: biochemical, bovine; conditions: equilibrium association constant; substrate N-Benzoyl-Phe-Val-Arg-p-nitroanilide
Protocol: [The procedure below names another target; the source says it served here with some conditions changed.] as §1
(§2) Kass is calculated for a range of concentrations of test compounds and the mean value is reported in units of liter per mole. […]

[3] = target: Plasmin; assay: Serine protease selectivity assay (chromogenic substrate), Kass, plasmin; format: biochemical, human; conditions: equilibrium association constant; substrate H-D-Val-Leu-Lys-p-nitroanilide
Protocol: [The procedure below names another target; the source says it served here with some conditions changed.] as §1, §2

[4] = target: factor Xa; assay: Serine protease selectivity assay (chromogenic substrate), Kass, factor Xa; format: biochemical, human; conditions: equilibrium association constant; substrate N-Benzoyl-Ile-Glu-Gly-Arg-p-nitroanilide
Protocol: [The procedure below names another target; the source says it served here with some conditions changed.] as §1, §2

[5] = system: t-PA; assay: Serine protease selectivity assay (chromogenic substrate), Kass, t-PA; format: biochemical; conditions: equilibrium association constant; substrate H-D-Ile-Pro-Arg-p-nitroanilide
Protocol: [The procedure below names another target; the source says it served here with some conditions changed.] as §1, §2

SMILES | Kd [1] | Kd [2] | Kd [3] | Kd [4] | Kass t-PA [5]
C[C@@](C=O)(CCCNC(=N)N)NC(=O)[C@@H]1CCCN1C(=O)[C@@H]1NCCc2ccccc21 [Example 2, D-1-(1,2,3,4-tetrahydroisoquinolinylcarboxyl)-L-prolinyl-L -α-methylarginine aldehyde] | 4.55 µM | 71.4 µM | 1250 µM | 1000 µM | 0 × 10^6 (L/mole)
CN[C@H](Cc1ccccc1)C(=O)N1CCC[C@H]1C(=O)N[C@](C)(C=O)CCCNC(=N)N [Example 1, D-N-methylphenylalanyl-L-prolinyl-L-α-methylarginine aldehyde] | 0.909 µM | 250 µM | 2000 µM | 3330 µM | 0 × 10^6 (L/mole)
